≈ marks a conversion by molar mass, not a printed value. Calls of active or inactive are those of the source. The rule behind the calls is not given here.
What was measured:
MGC-803 = test: Antiproliferative activity against human MGC803 cells after 48 hrs by MTT assay; format: functional, cell-based; details: MGC-803, 48 h
U-251 = test: Antiproliferative activity against human U251 cells after 48 hrs by MTT assay; format: functional, cell-based; details: U-251, 48 h
SMMC-7721 = test: Antiproliferative activity against human SMMC7721 cells after 48 hrs by MTT assay; format: functional, cell-based; details: SMMC-7721, 48 h
MDA-MB-231 = test: Antiproliferative activity against human MDA-MB-231 cells after 48 hrs by MTT assay; format: functional, cell-based; details: MDA-MB-231, 48 h
HepG2 [1] = test: Antiproliferative activity against human HepG2 cells after 72 hrs by MTT assay; format: functional, cell-based; details: HepG2, 72 h
HepG2 [2] = test: Synergistic growth inhibition against human HepG2 cells assessed as fold change in sorafenib IC50 at 10 ug/ml after 24 hrs by MTT assay; format: functional
HepG2 [3] = test: Synergistic growth inhibition against human HepG2 cells assessed as fold change in sorafenib IC50 at 5 ug/ml after 24 hrs by MTT assay; format: functional
HepG2 [4] = test: Synergistic growth inhibition against human HepG2 cells assessed as fold change in sorafenib IC50 at 2.50 ug/ml after 24 hrs by MTT assay; format: functional
HepG2 [5] = test: Cell cycle arrest in human HepG2 cells assessed as decrease in accumulation of cells at G0/G1 phase at 10 ug/ml after 48 hrs by propidium iodide staining-based flow cytometric analysis; format: functional
HepG2 [6] = test: Cell cycle arrest in human HepG2 cells assessed as increase in accumulation of cells at G2/M phase at 10 ug/ml after 48 hrs by propidium iodide staining-based flow cytometric analysis; format: functional
HepG2 [7] = test: Synergistic cell cycle arrest in human HepG2 cells assessed as decrease in accumulation of cells at G0/G1 phase at 10 ug/ml after 48 hrs in presence of sorafenib by propidium iodide staining-based flow cytometric analysis; format: functional
HepG2 [8] = test: Induction of apoptosis in human HepG2 cells assessed as early apoptotic cells at 5 ug/ml after 24 hrs by Annexin V-FITC/propidium iodide staining-based flow cytometric analysis (reference value: 0.18%); format: functional
HepG2 [9] = test: Induction of apoptosis in human HepG2 cells assessed as late apoptotic cells at 5 ug/ml after 24 hrs by Annexin V-FITC/propidium iodide staining-based flow cytometric analysis (reference value: 0%); format: functional
HepG2 [10] = test: Induction of apoptosis in human HepG2 cells assessed as early apoptotic cells at 10 ug/ml after 24 hrs by Annexin V-FITC/propidium iodide staining-based flow cytometric analysis (reference value: 0.18%); format: functional
HepG2 [11] = test: Induction of apoptosis in human HepG2 cells assessed as late apoptotic cells at 10 ug/ml after 24 hrs by Annexin V-FITC/propidium iodide staining-based flow cytometric analysis (reference value: 0%); format: functional
HepG2 [12] = test: Synergistic induction of apoptosis in human HepG2 cells assessed as early apoptotic cells at 10 ug/ml after 24 hrs in presence of sorafenib by Annexin V-FITC/propidium iodide staining-based flow cytometric analysis (reference value: 0.18%); format: functional
HepG2 [13] = test: Synergistic induction of apoptosis in human HepG2 cells assessed as late apoptotic cells at 10 ug/ml after 24 hrs in presence of sorafenib by Annexin V-FITC/propidium iodide staining-based flow cytometric analysis (reference value: 0%); format: functional
HepG2 [14] = test: Downregulation of C-myc protein levels in human HepG2 cells after 48 hrs by Western blot analysis; format: functional, cell-based
HepG2 [15] = test: Downregulation of beta-Catenin protein levels in human HepG2 cells after 48 hrs by Western blot analysis; format: functional, cell-based
HepG2 [16] = test: Downregulation of cyclin D1 protein levels in human HepG2 cells after 48 hrs by Western blot analysis; format: functional, cell-based
HepG2 [17] = test: Downregulation of Ki67 protein levels in human HepG2 cells after 48 hrs by Western blot analysis; format: functional, cell-based
HepG2 [18] = test: Synergistic downregulation of C-myc protein levels in human HepG2 cells at 10 ug/ml after 48 hrs in presence of sorafenib by Western blot analysis; format: functional, cell-based
HepG2 [19] = test: Synergistic downregulation of beta-catenin protein levels in human HepG2 cells at 10 ug/ml after 48 hrs in presence of sorafenib by Western blot analysis; format: functional, cell-based
HepG2 [20] = test: Synergistic downregulation of cyclin D1 protein levels in human HepG2 cells at 10 ug/ml after 48 hrs in presence of sorafenib by Western blot analysis; format: functional, cell-based
HepG2 [21] = test: Synergistic downregulation of Ki67 protein levels in human HepG2 cells at 10 ug/ml after 48 hrs in presence of sorafenib by Western blot analysis; format: functional, cell-based
HepG2 [22] = test: Upregulation of vimentin protein levels in human HepG2 cells at 5 to 20 ug/ml after 48 hrs by Western blot analysis; format: functional, cell-based
HepG2 [23] = test: Synergistic upregulation of vementin protein levels in human HepG2 cells at 10 ug/ml after 48 hrs in presence of sorafenib by Western blot analysis; format: functional, cell-based
H22 [24] = test: Antitumor activity against mouse H22 cells implanted in mouse assessed as tumor growth inhibition at 150 mg/kg, ip qd administered for 10 consecutive days measured after 24 hrs post last dose relative to control; format: functional; details: read-out: TGI
H22 [25] = test: Antitumor activity against mouse H22 cells implanted in mouse assessed as tumor growth inhibition at 50 mg/kg, ip qd administered for 10 consecutive days measured after 24 hrs post last dose relative to control; format: functional; details: read-out: TGI
H22 [26] = test: Synergistic antitumor activity against mouse H22 cells implanted in mouse assessed as tumor growth inhibition at 150 mg/kg, ip or ig qd administered for 10 consecutive days measured after 24 hrs post last dose in presence of sorafenib relative to control; format: functional; details: read-out: TGI
H22 [27] = test: Synergistic antitumor activity against mouse H22 cells implanted in mouse assessed as tumor growth inhibition at 100 mg/kg, ip or ig qd administered for 10 consecutive days measured after 24 hrs post last dose in presence of sorafenib relative to control; format: functional; details: read-out: TGI
H22 [28] = test: Synergistic antitumor activity against mouse H22 cells implanted in mouse assessed as tumor growth inhibition at 50 mg/kg, ip or ig qd administered for 10 consecutive days measured after 24 hrs post last dose in presence of sorafenib relative to control; format: functional; details: read-out: TGI
H22 [29] = test: Antitumor activity against mouse H22 cells implanted in mouse assessed as tumor growth inhibition at 100 mg/kg, ip qd administered for 10 consecutive days measured after 24 hrs post last dose relative to control; format: functional; details: read-out: TGI
H22 [30] = test: Antitumor activity against mouse H22 cells implanted in mouse assessed as tumor growth inhibition at 150 mg/kg, ig qd administered for 10 consecutive days measured after 24 hrs post last dose relative to control; format: functional; details: H22, po, read-out: TGI
H22 [31] = test: Antitumor activity against mouse H22 cells implanted in mouse assessed as tumor growth inhibition at 100 mg/kg, ig qd administered for 10 consecutive days measured after 24 hrs post last dose relative to control; format: functional; details: H22, po, read-out: TGI
H22 [32] = test: Antitumor activity against mouse H22 cells implanted in mouse assessed as tumor growth inhibition at 50 mg/kg, ig qd administered for 10 consecutive days measured after 24 hrs post last dose relative to control; format: functional; details: H22, po, read-out: TGI
HepG2 [33] = test: Induction of apoptosis in human HepG2 cells assessed as viable cells at 5 ug/ml after 24 hrs by Annexin V-FITC/propidium iodide staining-based flow cytometric analysis (reference value: 99.82%); format: functional; details: HepG2, 24 h, read-out: Activity
HepG2 [34] = test: Induction of apoptosis in human HepG2 cells assessed as necrotic cells at 5 ug/ml after 24 hrs by Annexin V-FITC/propidium iodide staining-based flow cytometric analysis (reference value: 0%); format: functional
HepG2 [35] = test: Induction of apoptosis in human HepG2 cells assessed as viable cells at 10 ug/ml after 24 hrs by Annexin V-FITC/propidium iodide staining-based flow cytometric analysis (reference value: 99.82%); format: functional; details: HepG2, 24 h, read-out: Activity
HepG2 [36] = test: Induction of apoptosis in human HepG2 cells assessed as necrotic cells at 10 ug/ml after 24 hrs by Annexin V-FITC/propidium iodide staining-based flow cytometric analysis (reference value: 0%); format: functional
HepG2 [37] = test: Synergistic induction of apoptosis in human HepG2 cells assessed as viable cells at 10 ug/ml after 24 hrs in presence of sorafenib by Annexin V-FITC/propidium iodide staining-based flow cytometric analysis (reference value: 99.82%); format: functional; details: HepG2, 24 h, read-out: Activity
HepG2 [38] = test: Synergistic induction of apoptosis in human HepG2 cells assessed as necrotic cells at 10 ug/ml after 24 hrs in presence of sorafenib by Annexin V-FITC/propidium iodide staining-based flow cytometric analysis (reference value: 0%); format: functional
HepG2 [39] = test: cells; details: Homo sapiens, HepG2, 48 h
HeLa = test: cells; details: Homo sapiens, 48 h
HepG2 [40] = test: cells; details: Homo sapiens, HepG2, 24 h
Description: Antiproliferative activity against human HepG2 cells after 24 hrs by MTT assay

`COc1cc(NC(=O)Nc2ccc(Cl)c(C(F)(F)F)c2)c2c(c1O)-c1c(OC)c(OC)cc3c1[C@H](C2)N(C)CC3` was tested, and the IC50 (MGC-803) was 16.6 µM, the IC50 (U-251) was 10.1 µg/mL (≈ 17.5 µM) and the IC50 (SMMC-7721) was 18.6 µg/mL (≈ 32.2 µM). The IC50 (MDA-MB-231) was 15.6 µg/mL (≈ 27 µM), the IC50 (HepG2 [1]) was 6.7 µg/mL (≈ 11.6 µM) and the “fold change (FC)” value (HepG2 [2]) was 2.04. The “fold change (FC)” value (HepG2 [3]) was 1.25, the “fold change (FC)” value (HepG2 [4]) was 0.91 and the Activity (HepG2 [5]) was “Active”. For the same compound, the Activity (HepG2 [6]) was “Active”, the Activity (HepG2 [7]) was “Active” and the Activity (HepG2 [8]) was 6.8%. It also gave an Activity (HepG2 [9]) of 2.14%, an Activity (HepG2 [10]) of 3.11% and an Activity (HepG2 [11]) of 8.78%. The Activity (HepG2 [12]) was 44.33%, the Activity (HepG2 [13]) was 19.34% and the Activity (HepG2 [14]) was “Dose-dependent effect”. The Activity (HepG2 [15]) was “Dose-dependent effect”, the Activity (HepG2 [16]) was “Dose-dependent effect” and the Activity (HepG2 [17]) was “Dose-dependent effect”. The Activity (HepG2 [18]) was “Active”, the Activity (HepG2 [19]) was “Active” and the Activity (HepG2 [20]) was “Active”. The Activity (HepG2 [21]) was “Active”, the Activity (HepG2 [22]) was “Active” and the Activity (HepG2 [23]) was “inactive”. The inhibition in vivo at 150 mg/kg (H22 [24]) was 50.8%, the inhibition in vivo at 50 mg/kg (H22 [25]) was 40.3% and the inhibition in vivo at 150 mg/kg (H22 [26]) was 70.6%. The inhibition in vivo at 100 mg/kg (H22 [27]) was 65.1%, the inhibition in vivo at 50 mg/kg (H22 [28]) was 63.1% and the inhibition in vivo at 100 mg/kg (H22 [29]) was 46.3%. For the same compound, the inhibition in vivo at 150 mg/kg (H22 [30]) was 53.4%, the inhibition in vivo at 100 mg/kg (H22 [31]) was 48.2% and the inhibition in vivo at 50 mg/kg (H22 [32]) was 40.1%. The viability at 5 µg/mL (HepG2 [33]) was 91%, the Activity (HepG2 [34]) was 0.07% and the viability at 10 µg/mL (HepG2 [35]) was 88.1%. It also gave an Activity (HepG2 [36]) of 0.04%, a viability at 10 µg/mL (HepG2 [37]) of 36.3% and an Activity (HepG2 [38]) of 0.06%. It also gave an IC50 (HepG2 [39]) of 17.2 µM, an IC50 (HeLa) of 26.5 µM and an IC50 (HepG2 [40]) of 16.8 µg/mL (≈ 29.1 µM).

Reference: ChEMBL document CHEMBL4177667, “Design, synthesis, and anticancer properties of isocorydine derivatives” (Bioorg Med Chem, 2017)
